Where “and” joins values, the source holds several entries; their conditions need not be identical. Equal values may be shown once. Toxic doses and inconclusive results are not listed. Rule as the data show it: active = T/C of 150% or more; inactive = T/C below 125%.
Test system: L1210 leukemia ip in BDF1 mice, survival T/C
Experiment: NCI In Vivo Anticancer Drug Screen. Data for tumor model L1210 Leukemia (intraperitoneal) in B6D2F1 (BDF1) mice
Conditions: endpoint: mean survival time, higher = longer survival
How it was run: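 Tumor was transplanted into mice, which were then dosed with test compound or vehicle alone. Survival was recorded for each group, and the treated figure was expressed relative to the control figure.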

[1] = dose: 100.0 mg/kg/injection, schedule: Q01DX009 (ip), vehicle: Klucel (hydroxypropylcellulose) (HPC)
[2] = dose: 100.0 mg/kg/injection, schedule: Q04DX003 (ip), vehicle: Klucel (hydroxypropylcellulose) (HPC)
[3] = dose: 200.0 mg/kg/injection, schedule: Q01DX009 (ip), vehicle: Klucel (hydroxypropylcellulose) (HPC)
[4] = dose: 200.0 mg/kg/injection, schedule: Q04DX003 (ip), vehicle: Klucel (hydroxypropylcellulose) (HPC)
[5] = dose: 400.0 mg/kg/injection, schedule: Q01DX009 (ip), vehicle: Klucel (hydroxypropylcellulose) (HPC)
[6] = dose: 400.0 mg/kg/injection, schedule: Q04DX003 (ip), vehicle: Klucel (hydroxypropylcellulose) (HPC)
[7] = dose: 100.0 mg/kg/injection, schedule: Q04DX002 (ip), vehicle: saline
[8] = dose: 200.0 mg/kg/injection, schedule: Q04DX002 (ip), vehicle: saline

Measured: T/C

CC1SC(c2ccccc2)N(c2ccccc2)C1=O (stereo not drawn)
inactive: [1] 98 % of control | [2] 100 % of control | [3] 114 % of control | [4] 98 % of control | [5] 106 % of control | [6] 100 % of control

CCCC(=O)N1CCC(C)CC1
inactive: dose: 50.0 mg/kg/injection, schedule: Q01DX001 (ip), vehicle: saline 103 % of control | dose: 50.0 mg/kg/injection, schedule: Q01DX009 (ip), vehicle: saline 97 % of control and 98 % of control | dose: 50.0 mg/kg/injection, schedule: Q04DX002 (ip), vehicle: saline 112 % of control | dose: 50.0 mg/kg/injection, schedule: Q04DX003 (ip), vehicle: saline 100 % of control | dose: 100.0 mg/kg/injection, schedule: Q01DX001 (ip), vehicle: saline 100 % of control | dose: 100.0 mg/kg/injection, schedule: Q01DX009 (ip), vehicle: saline 98 % of control | [7] 102 % of control | dose: 100.0 mg/kg/injection, schedule: Q04DX003 (ip), vehicle: saline 107 % of control | dose: 200.0 mg/kg/injection, schedule: Q01DX001 (ip), vehicle: saline 103 % of control | dose: 200.0 mg/kg/injection, schedule: Q01DX009 (ip), vehicle: saline 94 % of control and 113 % of control | [8] 102 % of control | dose: 200.0 mg/kg/injection, schedule: Q04DX003 (ip), vehicle: saline 95 % of control

O=C(CCCCC(=O)OCCBr)OCCBr
inactive: dose: 20.0 mg/kg/injection, schedule: Q04DX003 (ip), vehicle: Klucel (hydroxypropylcellulose) (HPC) 100 % of control | dose: 40.0 mg/kg/injection, schedule: Q04DX003 (ip), vehicle: Klucel (hydroxypropylcellulose) (HPC) 105 % of control | dose: 80.0 mg/kg/injection, schedule: Q04DX003 (ip), vehicle: Klucel (hydroxypropylcellulose) (HPC) 114 % of control | [4] 102 % of control

C=CC(=O)N(CCN1CCOCC1)C(C)C
inactive: [7] 94 % of control | [8] 97 % of control | dose: 400.0 mg/kg/injection, schedule: Q04DX002 (ip), vehicle: saline 94 % of control

CCOC(=O)c1ccc2c(ccc[n+]2C)c1
inactive: dose: 75.0 mg/kg/injection, schedule: Q01DX001 (ip), vehicle: saline 97 % of control | dose: 75.0 mg/kg/injection, schedule: Q04DX003 (ip), vehicle: saline 107 % of control | dose: 150.0 mg/kg/injection, schedule: Q01DX001 (ip), vehicle: saline 97 % of control | dose: 150.0 mg/kg/injection, schedule: Q04DX003 (ip), vehicle: saline 105 % of control | dose: 300.0 mg/kg/injection, schedule: Q01DX001 (ip), vehicle: saline 95 % of control

CCOC(=O)c1cc(C)n(-c2ccc(-c3ccc(-n4c(C)cc(C(=O)OCC)c4C)c(C)c3)cc2C)c1C
inactive: [2] 98 % of control | [4] 101 % of control | [6] 93 % of control

Cc1cc(C)c(NC(=O)C(C)(C)C)c(C)c1
inactive: [1] 96 % of control and 100 % of control | [3] 102 % of control | [5] 96 % of control and 100 % of control

Oc1ccc2ccccc2c1N=Nc1ccc(N=Nc2ccccc2)cc1
inactive: dose: 100.0 mg/kg/injection, schedule: Q01DX009 (ip), vehicle: saline with Tween-80 102 % of control | dose: 200.0 mg/kg/injection, schedule: Q01DX009 (ip), vehicle: saline with Tween-80 106 % of control | dose: 400.0 mg/kg/injection, schedule: Q01DX009 (ip), vehicle: saline with Tween-80 102 % of control

CC(C)=NNC(=O)CC(=O)NN=C(C)C
inactive: dose: 100.0 mg/kg/injection, schedule: Q04DX003 (ip), vehicle: saline sonified 89 % of control | dose: 200.0 mg/kg/injection, schedule: Q04DX003 (ip), vehicle: saline sonified 87 % of control | dose: 400.0 mg/kg/injection, schedule: Q04DX003 (ip), vehicle: saline sonified 94 % of control

BrC[P+](c1ccccc1)(c1ccccc1)c1ccccc1
inactive: dose: 3.12 mg/kg/injection, schedule: Q04DX002 (ip), vehicle: saline 108 % of control | dose: 6.25 mg/kg/injection, schedule: Q04DX002 (ip), vehicle: saline 104 % of control | dose: 12.5 mg/kg/injection, schedule: Q04DX002 (ip), vehicle: saline 105 % of control and 112 % of control

CCOC(=O)C[S][Sn]([Cl])([Cl])[S]CC(=O)OCC
inactive: dose: 100.0 mg/kg/injection, schedule: Q01DX001 (ip), vehicle: saline with Tween-80 100 % of control | dose: 200.0 mg/kg/injection, schedule: Q01DX001 (ip), vehicle: saline with Tween-80 92 % of control | dose: 400.0 mg/kg/injection, schedule: Q01DX001 (ip), vehicle: saline with Tween-80 87 % of control

— PubChem BioAssay AID248 (DTP/NCI, 2004)
